{"source": "patent US11624748B2", "about": "“Methods and compositions for the identification of epithelial to mesenchymal breast cancer” (Tuskegee University, priority 2019, dated 2023)", "key": {"[1]": {"system": "EMT phenotypic cells (MCF-7/TGFβ, MDA-MB-231 and T47D-shNMI)", "test": "phage capture assay", "assay_type": "cell-based, human", "conditions": "for selectivity for EMT phenotypic cells: MDA-MB-231 and T47D-shNMI, selective = at least five times higher relative binding", "text": "(§1) Individual phage clones were characterized for their selectivity toward EMT cells, MCF-7/TGFβ and MDA-MB-231 breast cancer cells in comparison with epithelial breast cancer cells, MCF-7, T47D, and breast fibroblasts using phage capture assay and cell-based ELISA.\n(§2) In phage capture assay, briefly, target cells MCF-7/TGFβ, MDA-MB-231, MCF-7, T47D, T47D-shNMI and breast fibroblasts were cultivated in triplicate to confluence in separate wells of 12-well cell culture plates. The medium with serum was incubated in separate wells in triplicate as a control. Cells were incubated with phage (1×10^10 pfu) at RT for 1 h. Unbound phages were carefully removed and cells were washed with 100 μl washing buffer for 5 min eight times to remove non-specifically interacting phages. Cells were lysed with […] (2.5% CHAPS) for 10 min on a rocker. The lysate containing cell-interacting phages was titered in E. coli ER2738 bacterial cells. Phage recovery was calculated as a ratio of output to input phage."}, "[2]": {"system": "EMT cells (MCF-7/TGFβ, MDA-MB-231, T47D-shNMI)", "test": "phage based-ELISA (cell-based ELISA)", "set-up": "species or system human", "conditions": "10^10 PFU, 1 hour at RT", "protocol": "as §1\nConfluent monolayers of MCF-7/TGFβ, MDA-MB-231, MCF-7, T47D, T47D-shNMI and breast fibroblasts cells were incubated at room temperature with individual phage clones (10^10 PFU), for 1 hour at RT. Subsequently, cells were washed with PBS containing 0.1% Tween-20, incubated with primary anti-M13-biotin antibody (1:1000), for 1 h, at RT. Cells were washed again with PBS containing 0.1% Tween-20, incubated with secondary antibody streptavidin-HRP (1:2000, 45 min, RT), developed with tetra methyl benzidine and read at absorbance 650 with microplate reader (BioTek)."}, "[3]": {"system": "breast fibroblasts (Hs578T)", "test": "immunofluorescence microscopy of phage binding", "assay_type": "cell-based, human", "conditions": "10^8 pfu, RT 1 hr", "protocol": "(§3) MCF-7, MCF-7/TGFβ, MDA-MB-231 and Hs578T (breast fibroblasts) cells were seeded in a 4-well chamber overnight. On the next day, cells were fed with fresh medium. LGLRGSL (SEQ ID NO: 1) (E11) (10^8 pfu) was added in fresh medium and incubated at RT for one hour. After removing the unbound phages, cells were washed with wash buffer (0.1% tween-20 in PBS) three times and fixed with 4% formaldehyde for 15 minutes at 37° C. Cells were permeabilized with 0.2% Triton X-100 at RT for 10 minutes. Reagent was removed and cells were washed with TBS 3 times. Before incubation with anti-phage antibody, cells were treated with blocking buffer for 30 minutes at RT. Cells were incubated with M13-pIII monoclonal antibody for 1 hour at RT, washed and incubated with the secondary goat anti-mouse IgG antibody labeled with Alexa Flour® 488 (Molecular Probes) at a dilution of 1:500 in PBS containing 1% BSA for 45 minutes at RT. Cells were washed three times after secondary antibody treatment. TOTO-3 was used for nucleus staining. Cells were covered with cover slides with Prolong Gold Anti-fade Reagents. Nail polish was used to seal the slide. Pictures were taken by using the NIKON eclipse TE 2000-E confocal microscope.\n(§4) To further confirm the specificity of LGLRGSL (SEQ ID NO: 1) (E11) towards breast cancer cells with an EMT phenotype, immunofluorescence microscopy of intact cells (MCF-7/TGF β and MDA-MB-231), and control MCF-7 breast cancer cells and breast fibroblasts (Hs578T) were used. All cells were treated with the phage (10^8 pfu) at RT for 1 hr, and subsequently incubated with primary anti-pIII antibody and then stained with secondary anti-mouse Alexa fluor 488 secondary antibody. […] No background antibody was observed as shown in the respective controls of cells treated with just primary and secondary antibodies."}, "MDA-MB-231": {"system": "MDA-MB-231", "test": "immunofluorescence microscopy of phage binding", "assay_type": "cell-based, human", "conditions": "10^8 pfu, RT 1 hr", "protocol": "as §3, §4"}, "MCF-7 cells": {"system": "MCF-7 cells", "test": "immunofluorescence microscopy of phage binding", "assay_type": "cell-based, human", "conditions": "10^8 pfu, RT 1 hr", "protocol": "as §3, §4"}, "MCF-7/TGFβ": {"system": "MCF-7/TGFβ", "test": "immunofluorescence microscopy of phage binding", "assay_type": "cell-based, human", "conditions": "10^8 pfu, RT 1 hr", "protocol": "as §3, §4"}, "activated fibroblasts": {"system": "activated fibroblasts", "test": "phage capture assay of phage binding to cancer-conditioned media activated fibroblasts", "assay_type": "cell-based, human", "protocol": "as §2\nBreast fibroblasts were plated in a 12.5 cm flask cultured until approximately 70% confluent. Once properly confluent, fibroblasts were then cultured in MDA-MB-231 conditioned media or normal fibroblasts media for 72 hours. Thereafter, they were exposed to E11 phage (10^8 pfu) for 2 hours and analyzed for binding in phage capture assay as described above."}, "heat shock protein HSPD1": {"biological_target": "T1, heat shock protein HSPD1 (Homo sapiens, UniProt P10809)", "T1 construct": "endogenous in cells; host or cells: MDA-MB-231 human breast cancer cells", "T1 sequence (P10809 27-573)": "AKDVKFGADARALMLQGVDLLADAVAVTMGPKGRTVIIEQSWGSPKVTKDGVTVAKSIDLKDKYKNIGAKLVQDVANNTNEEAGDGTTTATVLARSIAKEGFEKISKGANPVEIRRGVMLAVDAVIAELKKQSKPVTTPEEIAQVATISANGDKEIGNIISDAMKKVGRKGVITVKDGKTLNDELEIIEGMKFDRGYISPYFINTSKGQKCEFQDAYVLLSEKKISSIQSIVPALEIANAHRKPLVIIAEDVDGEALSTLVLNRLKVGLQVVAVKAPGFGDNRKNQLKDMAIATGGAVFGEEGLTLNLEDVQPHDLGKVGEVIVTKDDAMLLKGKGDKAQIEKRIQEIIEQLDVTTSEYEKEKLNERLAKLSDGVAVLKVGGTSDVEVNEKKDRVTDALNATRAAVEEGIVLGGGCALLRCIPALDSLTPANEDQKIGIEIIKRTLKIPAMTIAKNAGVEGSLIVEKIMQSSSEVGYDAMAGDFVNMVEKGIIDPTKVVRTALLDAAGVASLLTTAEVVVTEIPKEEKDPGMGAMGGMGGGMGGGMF", "test": "biotinylated phage pulldown of receptor protein from MDA-MB-231", "assay_type": "binding", "conditions": "pulldown from MDA-MB-231", "protocol": "The biotinylated phage immobilizes the receptor protein. The Dynal magnetic beads are then functionalized with streptavidin. […] To visualize the protein, the SDS-page gel was treated with silver nitrate staining. FIG. 9B discloses SEQ ID NO: 26. FIG. 9 C provides the sequence of Heat shock protein (HSPD1), mitochondrial n=2 Tax=Homo sapiens RepID=CH60_HUMAN 5 exclusive unique peptides, 5 exclusive unique spectra, 8 total spectra, 48/573 amino acids (8% coverage). FIG. 9C discloses SEQ ID NO: 27."}, "[4]": {"system": "human breast cancer tissue microarray", "test": "ex vivo phage binding to human breast cancer tissue microarray", "conditions": "for immunostaining for phage in invasive ductal breast cancer carcinoma: invasive ductal carcinoma sections, 10^10 pfu overnight; for binding in normal breast tissues: normal breast tissue", "protocol": "FIG. 7A-7E presents results of ex vivo phage binding to a human breast cancer tissue microarray. Tissue microarray of invasive ductal carcinoma and adjacent normal tissues were incubated with 1010 pfu of LGLRGSL phage (SEQ ID NO: 1) or Vimentin antibody and then subsequently with M13-pIII antibody for phage and secondary peroxidase antibody for phage and Vimentin, imaged with a digital light microscope.\nThe breast tissue microarrays were obtained from Novus Biological (Littleton, Colo.). These include 40 breast cancer infiltrating ductal carcinoma, 10 metastatic lymph node and 9 adjacent normal breast tissues. The use of tissue was approved by the Institutional Review Board of Tuskegee University. Clinico-histopathologic characteristics of the subjects in the tissue microarray study included age, grade, hormone status and clinical stage, according to information provided by the suppliers. The expression levels were classified as negative (≤0.3), weak positive (0.3 to 1.5), or strong positive (≥1.5). Tissues were de-paraffinized in xylene and rehydrated in graded alcohols. For antigen retrieval the slides were pressure-cooked for 10 minutes. Endogenous peroxidase activity was quenched with 3% hydrogen peroxide for 5 minutes. vSlides were treated with LGLRGSL phage (SEQ ID NO: 1) (10^10 pfu) overnight. Slides were subsequently washed and blocked by 3% goat serum at room temperature for 1 hour in humidity chambers. Slides were then treated with M13-pIII phage monoclonal antibody (NEB, MA) or Vimentin antibody (Cell Siganling, Danvers, Mass.) (1:100). The HRP conjugated goat anti-mouse secondary antibody (Jackson Immunoresearch Laboratories Inc, West Grove, Pa.) was applied for 40 minutes. The antigen-antibody reaction was visualized after diaminobenzidine (Sigma-Aldrich, MO) was applied for 7 minutes. The slides were counterstained with hematoxylin (Sigma-Aldrich, MO) for 1 minute. Positive controls were included in each staining run; negative controls were obtained by omitting the primary antibody. Slides were then dehydrated in alcohols and cleared in three xylene baths before being mounted with Permount media."}}}
{"substance": "GTFLFS [E32]", "values": [{"measurement": "selectivity for EMT phenotypic cells", "setting": "[1]; MCF-7/TGFβ", "value": "very selective"}]}
{"substance": "KGDYKLF [L42]", "values": [{"measurement": "selectivity towards MCF-7/TGFβ, MCF-7 and breast fibroblasts", "setting": "[1]; MCF-7/TGFβ, MCF-7 and breast fibroblasts", "value": "not so selective"}, {"measurement": "specificity towards MDA-MB-231 cells", "setting": "[1]; MDA-MB-231 cells", "value": "high specificity"}]}
{"substance": "LGLRGSL [E11]", "values": [{"measurement": "selectivity towards EMT cells in phage-based ELISA", "setting": "[2]", "value": "confirmatory"}, {"measurement": "phage binding (green fluorescent phage staining)", "setting": "[3]", "value": "almost no binding"}, {"measurement": "phage binding (green fluorescent phage staining)", "setting": "MDA-MB-231", "value": "abundant binding"}, {"measurement": "phage binding (green fluorescent phage staining)", "setting": "MCF-7 cells", "value": "some staining"}, {"measurement": "phage binding (green fluorescent phage staining)", "setting": "MCF-7/TGFβ", "value": "abundant binding"}, {"measurement": "selectivity for EMT phenotypic cells", "setting": "[1]; MCF-7/TGFβ", "value": "very selective"}, {"measurement": "reactivity to activated fibroblasts", "setting": "activated fibroblasts; FIG. 5, FBC vs FBD", "value": "highly reactive"}, {"measurement": "binding to activated-fibroblasts than normal fibroblasts", "setting": "activated fibroblasts; fibroblasts in MDA-MB-231 conditioned media 72 hours vs normal fibroblast media, 10^8 pfu, 2 hours", "value": "twice as much"}, {"measurement": "binding to heat shock protein HSPD1", "setting": "heat shock protein HSPD1", "value": "binds"}, {"measurement": "immunostaining for phage in invasive ductal breast cancer carcinoma", "setting": "[4]", "value": "substantial staining"}, {"measurement": "immunostaining for phage in invasive ductal breast cancer carcinoma", "setting": "[4]; listed as LGLRGSL phage", "value": "Strong brown staining"}, {"measurement": "staining intensity in tumors invading into adjacent lymph nodes", "setting": "[4]; metastasis in lymph nodes", "value": "increased"}, {"measurement": "binding in normal breast tissues", "setting": "[4]", "value": "no binding"}, {"measurement": "binding in normal breast tissues", "setting": "[4]; listed as LGLRGSL phage", "value": "no staining"}, {"measurement": "staining around the invasive or leading edge of the tumor-stromal interaction", "setting": "[4]; tumor cells, invasive or leading edge", "value": "robust staining"}]}
{"substance": "PNLPWVP [E45]", "values": [{"measurement": "selectivity for EMT phenotypic cells", "setting": "[1]; MCF-7/TGFβ", "value": "very selective"}]}
